For this data set the following is noted: for aqueous solubility: pH 6.8.

SMILES strings stand for the structures. ≈ marks a conversion by molar mass, not a printed value.

In general, aqueous solubility refers to how much of the substance goes into solution per volume. Low readings indicate little dissolved substance, high ones much dissolved substance.

`COc1cccc2c1OC(C)(C)[C@@H]1C[C@H]3CNCC[C@H]3O[C@@H]21`: the MDR1-MDCK efflux ratio amounted to 17.1; the intrinsic clearance, human liver microsomes was at most 4.74 mL/min/kg; the intrinsic clearance, rat liver microsomes was determined as 51.5 mL/min/kg; the aqueous solubility was determined as 53.4 µg/mL (≈ 176 µM).

For `Cc1nn(C)c2nc(C(C)C)cc(C(=O)O)c12`, the intrinsic clearance, human liver microsomes was at most 4.74 mL/min/kg; the intrinsic clearance, rat liver microsomes was at most 10.7 mL/min/kg; the aqueous solubility was 32.5 µg/mL (≈ 139 µM).

Consider `NCCc1cnn(Cc2ccccc2)c1`, for which the intrinsic clearance, human liver microsomes was at most 4.74 mL/min/kg and the intrinsic clearance, rat liver microsomes was at most 10.7 mL/min/kg.

`COc1ccccc1-c1csc(-n2ncc(C#N)c2N)n1` returned an aqueous solubility of 0.13 µg/mL (≈ 0.437 µM).

On to `COc1cccc(C(=O)C[n+]2cc(-c3ccc(F)cc3)n(C)c2N)c1`, for which the MDR1-MDCK efflux ratio stood at 26.3; the intrinsic clearance, human liver microsomes was at most 4.74 mL/min/kg; the intrinsic clearance, rat liver microsomes was 45.2 mL/min/kg; the aqueous solubility is 74.1 µg/mL.

Take `OC[C@H](Nc1cncc(-c2ccc3[nH]ncc3n2)c1)c1ccccc1`: the MDR1-MDCK efflux ratio is 25; the fraction unbound, human plasma turned out to be 0.104; the fraction unbound, rat plasma stood at 0.106; the intrinsic clearance, human liver microsomes was 9.8 mL/min/kg. In addition, the intrinsic clearance, rat liver microsomes came to 330 mL/min/kg and the aqueous solubility was 32.7 µg/mL (≈ 98.6 µM).

As to `CCOc1ccc(CC(=O)NCCn2cccnc2=O)cc1`, the MDR1-MDCK efflux ratio was 18; the intrinsic clearance, human liver microsomes is at most 4.74 mL/min/kg; the intrinsic clearance, rat liver microsomes stood at 11.1 mL/min/kg; the aqueous solubility was found to be 68.5 µg/mL (≈ 227 µM).

`CNc1cc(C)nc(-c2ccnc3c2ccn3C)n1` came in with an intrinsic clearance, human liver microsomes of 85.7 mL/min/kg; an intrinsic clearance, rat liver microsomes of 82.2 mL/min/kg; an aqueous solubility of 29.2 µg/mL (≈ 115 µM).

As for `CCn1c(C(=O)N(C2CC2)C2CC2)cc2c3c(ncn3C)c(Nc3cc(C)n(C)n3)nc21`, the MDR1-MDCK efflux ratio stood at 21; the intrinsic clearance, human liver microsomes worked out at 11.3 mL/min/kg; the intrinsic clearance, rat liver microsomes is 20.1 mL/min/kg.

`COCCNC(=O)c1ccnc(C2CCNCC2)c1` yielded a fraction unbound, human plasma of 1; a fraction unbound, rat plasma of 1; an intrinsic clearance, human liver microsomes of at most 4.74 mL/min/kg; an intrinsic clearance, rat liver microsomes of 16.1 mL/min/kg.

On to `Cc1cccc(OC2CCN(CC(N)=O)CC2)c1`, for which the MDR1-MDCK efflux ratio was 0.636; the intrinsic clearance, human liver microsomes was at most 4.74 mL/min/kg; the intrinsic clearance, rat liver microsomes was 67.2 mL/min/kg; the aqueous solubility was found to be 79 µg/mL (≈ 318 µM).

Molecule `Cc1nc2c(cnn2C(C)C)c(C)c1CCC(=O)O` yielded an intrinsic clearance, human liver microsomes of at most 4.74 mL/min/kg; an intrinsic clearance, rat liver microsomes of at most 10.7 mL/min/kg; an aqueous solubility of 25.7 µg/mL (≈ 98.3 µM).

As for `N=C(N)N/N=C/c1c(Cl)cccc1Cl`, the MDR1-MDCK efflux ratio came to 0.543; the intrinsic clearance, human liver microsomes was at most 4.74 mL/min/kg; the intrinsic clearance, rat liver microsomes stood at 77 mL/min/kg; the aqueous solubility came out at 50.3 µg/mL (≈ 218 µM).

Turning to `CN(C)c1ccc2c(c1)OCCN2C(=O)NCc1cccnc1`, the MDR1-MDCK efflux ratio is 2.66; the intrinsic clearance, human liver microsomes came to 23.6 mL/min/kg; the intrinsic clearance, rat liver microsomes came to 746 mL/min/kg; the aqueous solubility turned out to be 48.1 µg/mL (≈ 154 µM).

As to `O=C(c1cccc2ccccc12)N1CCCC(C(=O)N2CCc3ccccc3C2)C1` (centres undefined), the MDR1-MDCK efflux ratio was 5.83; the intrinsic clearance, human liver microsomes is 696 mL/min/kg; the intrinsic clearance, rat liver microsomes was determined as 4470 mL/min/kg; the aqueous solubility was found to be 56.4 µg/mL (≈ 142 µM).

Regarding `CC(C)(C)c1csc(CCNC(=O)N2CCSCC2)n1`, the MDR1-MDCK efflux ratio worked out at 1.14; the intrinsic clearance, human liver microsomes turned out to be 127 mL/min/kg; the intrinsic clearance, rat liver microsomes turned out to be 956 mL/min/kg; the aqueous solubility was determined as 69.1 µg/mL (≈ 220 µM).

Take `Cc1cc(C)n(-c2cc(Nc3ccccc3C)ncn2)n1`: the MDR1-MDCK efflux ratio is 0.489; the intrinsic clearance, human liver microsomes is 59.7 mL/min/kg; the intrinsic clearance, rat liver microsomes was found to be 286 mL/min/kg; the aqueous solubility worked out at 1.74 µg/mL (≈ 6.23 µM).

Consider `CC(=O)Nc1ccccc1CN1CCC(c2nnc3ccccn23)CC1`, for which the MDR1-MDCK efflux ratio worked out at 49.3; the intrinsic clearance, human liver microsomes came to 10 mL/min/kg; the intrinsic clearance, rat liver microsomes was determined as 114 mL/min/kg.

Regarding `CCC(=O)N(C)c1ccccc1C(=O)O`, the MDR1-MDCK efflux ratio turned out to be 1.28; the intrinsic clearance, human liver microsomes was determined as 23.7 mL/min/kg; the intrinsic clearance, rat liver microsomes was 1130 mL/min/kg; the aqueous solubility is 36.4 µg/mL (≈ 176 µM).

As to `O=C(NCc1cccc(F)c1)c1[nH]nnc1-c1ccccc1`, the MDR1-MDCK efflux ratio amounted to 1.37; the intrinsic clearance, human liver microsomes was at most 4.74 mL/min/kg; the intrinsic clearance, rat liver microsomes came out at 17.4 mL/min/kg; the aqueous solubility stood at 20.9 µg/mL (≈ 70.7 µM).

As to `CNc1nc(C2CCNCC2)nc2c1CN(C)CC2`, the intrinsic clearance, human liver microsomes was 9.51 mL/min/kg; the intrinsic clearance, rat liver microsomes was 29.1 mL/min/kg; the aqueous solubility is 36.2 µg/mL (≈ 139 µM).

In the case of `Cc1nn(-c2ccc(F)cc2)c(Cl)c1C(=O)N1CCC(S(=O)(=O)C(C)C)CC1`, the MDR1-MDCK efflux ratio stood at 14.6; the intrinsic clearance, human liver microsomes was at most 4.74 mL/min/kg; the intrinsic clearance, rat liver microsomes was found to be 14.2 mL/min/kg; the aqueous solubility amounted to 67.3 µg/mL (≈ 157 µM).

Turning to `CN(C)C1(CNC(=O)N2CCC=C(c3ccccc3)C2)CCOCC1`, the MDR1-MDCK efflux ratio was found to be 35.5; the intrinsic clearance, human liver microsomes amounted to 34.8 mL/min/kg; the intrinsic clearance, rat liver microsomes turned out to be 874 mL/min/kg.

In the case of `Cc1ccc(-c2nc(CN3C(=O)C(=O)N(C4CCCC4)C3=O)cs2)cc1`, the MDR1-MDCK efflux ratio came out at 0.789 and the aqueous solubility came out at 0.26 µg/mL (≈ 0.704 µM).

Turning to `Cc1cc(C)c(-c2csc(NC(=O)Cn3cnnn3)n2)c(C)c1`, the MDR1-MDCK efflux ratio was determined as 7.69 and the aqueous solubility is 0.12 µg/mL (≈ 0.365 µM).

For `COCc1nc(-c2cc(F)ccc2F)c(C)s1`, the MDR1-MDCK efflux ratio worked out at 0.684; the intrinsic clearance, human liver microsomes turned out to be 133 mL/min/kg; the intrinsic clearance, rat liver microsomes stood at 425 mL/min/kg; the aqueous solubility is 3.6 µg/mL (≈ 14.1 µM).

`O=C(c1ccc(NS(=O)(=O)c2cccc3cnccc23)cc1)N1CCCC1`: the MDR1-MDCK efflux ratio worked out at 79.1; the intrinsic clearance, human liver microsomes turned out to be 26.7 mL/min/kg; the intrinsic clearance, rat liver microsomes was determined as 562 mL/min/kg.

`O=[N+]([O-])c1ccc(S(=O)(=O)Nc2cccc(-c3nc4ccccc4s3)c2)cc1` yielded an intrinsic clearance, human liver microsomes of 267 mL/min/kg and an intrinsic clearance, rat liver microsomes of 512 mL/min/kg.

For `Cc1sc2ncn(Cc3c(F)cccc3Cl)c(=O)c2c1C`, the intrinsic clearance, human liver microsomes came out at 80 mL/min/kg and the intrinsic clearance, rat liver microsomes amounted to 757 mL/min/kg.

Consider `c1ccc2nc(N3CCCC4(CCNCC4)CC3)cnc2c1`, for which the MDR1-MDCK efflux ratio is 33.3; the intrinsic clearance, human liver microsomes was at most 4.74 mL/min/kg; the intrinsic clearance, rat liver microsomes was found to be 495 mL/min/kg.

`O=C(Nc1cnn(-c2ncccn2)c1)C1CCCCC1` gave an intrinsic clearance, human liver microsomes of at most 4.74 mL/min/kg and an intrinsic clearance, rat liver microsomes of 73.1 mL/min/kg.

For the molecule `c1csc(-c2csc3nc(CN4CCOCC4)nc(N4CCc5[nH]ncc5C4)c23)c1`, the MDR1-MDCK efflux ratio came to 83.5; the intrinsic clearance, human liver microsomes was 559 mL/min/kg; the intrinsic clearance, rat liver microsomes turned out to be 1320 mL/min/kg; the aqueous solubility was 49 µg/mL (≈ 112 µM).

Consider `CN(c1nc2ccccc2o1)C1CCN(C2CCOCC2)CC1`, for which the intrinsic clearance, human liver microsomes was 438 mL/min/kg and the intrinsic clearance, rat liver microsomes worked out at 117 mL/min/kg.

For the molecule `COc1ccc(S(=O)(=O)CCC(=O)Nc2ccc3c(c2)N(C)C(=O)CO3)cc1`, the MDR1-MDCK efflux ratio was 27.6; the intrinsic clearance, human liver microsomes was at most 4.74 mL/min/kg; the intrinsic clearance, rat liver microsomes came out at 109 mL/min/kg; the aqueous solubility was 62.2 µg/mL (≈ 154 µM).

With `O=C(Cc1n[nH]c2ccccc12)N1CCCO1`, the MDR1-MDCK efflux ratio was 0.958; the intrinsic clearance, human liver microsomes was at most 4.74 mL/min/kg; the intrinsic clearance, rat liver microsomes was 31.6 mL/min/kg.

Regarding `COc1c(C)cnc(Cn2cc(C#CCC(C)(C)O)c3c(Cl)nc(N)nc32)c1C`, the intrinsic clearance, human liver microsomes amounted to 58.2 mL/min/kg and the intrinsic clearance, rat liver microsomes stood at 145 mL/min/kg.

With `CCc1cc(N2CCOCC2)nc(C2CCN(C(=O)C3CC3)CC2)n1`, the MDR1-MDCK efflux ratio worked out at 4.76; the intrinsic clearance, human liver microsomes is 11.6 mL/min/kg; the intrinsic clearance, rat liver microsomes is 278 mL/min/kg.

On to `CCN(CC)C(=O)N1CCC(C(=O)O)CC1`, for which the MDR1-MDCK efflux ratio was determined as 4.41; the intrinsic clearance, human liver microsomes was at most 4.74 mL/min/kg; the intrinsic clearance, rat liver microsomes was at most 10.7 mL/min/kg; the aqueous solubility was found to be 60.2 µg/mL (≈ 264 µM).

As to `Cc1ccccc1NC(=O)CN1C(=O)CCC1=O`, the intrinsic clearance, human liver microsomes is at most 4.74 mL/min/kg; the intrinsic clearance, rat liver microsomes was at most 10.7 mL/min/kg; the aqueous solubility amounted to 36.3 µg/mL (≈ 147 µM).

Take `CCOc1nc(-c2ccc(Cl)c(Cl)c2)n(-c2cccc(NC(=O)c3ccc(F)cc3)c2)n1`: the MDR1-MDCK efflux ratio worked out at 2.67 and the aqueous solubility was 0.25 µg/mL (≈ 0.53 µM).

For `C[C@@H]1CC(=O)Nc2cccc(-c3ccc4c(c3)c(-c3cnn(C)c3)nn4C)c2N1`, the MDR1-MDCK efflux ratio was 57.3; the intrinsic clearance, human liver microsomes stood at 8.83 mL/min/kg; the intrinsic clearance, rat liver microsomes was determined as 46.5 mL/min/kg.

As for `Cc1nc(-c2ccccc2)ccc1C(=O)N1CCCS1(=O)=O`, the MDR1-MDCK efflux ratio amounted to 0.766; the intrinsic clearance, human liver microsomes is at most 4.74 mL/min/kg; the intrinsic clearance, rat liver microsomes is 96 mL/min/kg; the aqueous solubility was determined as 78.5 µg/mL (≈ 248 µM).

Consider `Cc1ccccc1C(=O)N1CCC[C@@H]1Cn1nnn(-c2cccs2)c1=O`, for which the MDR1-MDCK efflux ratio amounted to 1.11; the intrinsic clearance, human liver microsomes was 114 mL/min/kg; the intrinsic clearance, rat liver microsomes is 929 mL/min/kg; the aqueous solubility came to 49 µg/mL (≈ 133 µM).

Regarding `Cc1cc(C(=O)N(C)C2CCC2)n2nccc2n1`, the MDR1-MDCK efflux ratio stood at 0.719; the intrinsic clearance, human liver microsomes is at most 4.74 mL/min/kg; the intrinsic clearance, rat liver microsomes was at most 10.7 mL/min/kg; the aqueous solubility turned out to be 90.9 µg/mL (≈ 372 µM).

In the case of `CCCn1c(=O)n(Cc2ccc(C#N)cc2F)c2ccccc21`, the MDR1-MDCK efflux ratio amounted to 0.638; the intrinsic clearance, human liver microsomes worked out at 53.8 mL/min/kg; the intrinsic clearance, rat liver microsomes was 632 mL/min/kg; the aqueous solubility worked out at 14.7 µg/mL (≈ 47.6 µM).

On to `CCOc1ccccc1CNCCc1c[nH]c2ccccc12`, for which the MDR1-MDCK efflux ratio was found to be 3.34; the intrinsic clearance, human liver microsomes was found to be 127 mL/min/kg; the intrinsic clearance, rat liver microsomes is 2170 mL/min/kg; the aqueous solubility worked out at 39.6 µg/mL (≈ 135 µM).

For `O=C(Nc1ccccc1)c1sc(N2CCOCC2)nc1-c1ccccc1`, the MDR1-MDCK efflux ratio was found to be 0.494 and the aqueous solubility was 0.26 µg/mL (≈ 0.711 µM).

For the origin of these results see the Biogen ADME set (Fang et al. 2023).
